Experimental data: patent publication US20100041760A1, “MONOARYL AMINOTETRALINES” (priority 2008, published 2010)

These compounds were tested against T1, human CRTH2 (Homo sapiens, UniProt Q9Y5Y4) (assay: Calcium Flux Assay Using Fluorometric Imaging Plate Reader (FLIPR)). Details: CHO-K1 cells with G-alpha 16 and human CRTH2; inhibition of ligand (DK-PGD2) response; read-out: IC50 value in FLIPR calcium flux assay.
T1 sequence (Q9Y5Y4 1-395): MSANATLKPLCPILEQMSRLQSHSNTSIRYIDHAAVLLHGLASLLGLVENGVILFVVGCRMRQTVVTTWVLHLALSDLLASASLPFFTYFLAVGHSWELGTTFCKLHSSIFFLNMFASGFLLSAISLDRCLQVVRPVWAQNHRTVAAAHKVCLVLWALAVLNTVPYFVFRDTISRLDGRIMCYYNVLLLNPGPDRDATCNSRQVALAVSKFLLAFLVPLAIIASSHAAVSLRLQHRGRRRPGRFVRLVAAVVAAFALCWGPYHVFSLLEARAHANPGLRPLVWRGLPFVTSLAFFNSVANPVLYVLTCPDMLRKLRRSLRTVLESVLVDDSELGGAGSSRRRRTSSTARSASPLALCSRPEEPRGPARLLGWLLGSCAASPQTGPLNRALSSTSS
Assay type: cell-based
Set-up: expressed in transfected cells; host or cells: CHO-K1 previously transfected with G-alpha 16
Method: CHO-K1 cells previously transfected with G-alpha 16 were subsequently transfected with the human CRTH2 receptor and the neomycin resistance gene. Following selection in 800 μg/mL G418 (geneticin), individual clones were assayed for their receptor expression based on staining with an anti human CRTH2 IgG, followed by assaying for their response to 13,14-dihydro-15-keto Prostaglandin D2 (DK-PDG2) (ligand) in the Ca^2+ Flux assay. Positive clones were then cloned by limiting dilution cloning. The transfected cells were cultured in Ham's F-12 medium supplemented with 10% fetal bovine serum, 2 mM glutamine, 100 U/mL penicillin/100 μg/mL streptomycin, 200 μg/mL hygromycin B, and 800 μg/mL G418 (geneticin). Cells were harvested with trypsin-EDTA (trypsin-ethylenediaminetetraacetic acid) and counted using ViaCount® reagent (from Guava Technologies, Inc. which contains two DNA-binding dyes that enable the reagent user to distinguish between viable and non-viable cells). The cell suspension volume was adjusted to 2.5×10^5 cells /mL with complete growth media. Aliquots of 50 μL were dispensed into BD Falcon™ 384 well black/clear microplates (from BD Biosciences, a division of Becton, Dickinson and Company) and the microplates were placed in a 37° C. CO2 incubator overnight. The following day, the microplates were used in the assay.
Loading Buffer containing dye (from the FLIPR® Calcium 3 Assay Kit from Molecular Devices, a division of MDS Analytical Technologies and MDS Inc.) was prepared by dissolving the contents of one bottle into 200 mL Hank's Balanced Salt Solution containing 20 mM HEPES (4-(2-hydroxyethyl)-1-piperazineethanesulfonic acid) and 2.5 mM probenecid. Growth media was removed from the cell plates and 25 μL of Hank's Balanced Salt Solution (HBSS) containing 20 mM HEPES, 0.05% BSA and 2.5 mM probenecid was added to each well followed by 25 μL of diluted dye using a Multidrop dispenser. The plates were then incubated for 1 hour at 37° C.
During the incubation, test compound plates were prepared by adding 90 μL of HBSS/20 mM HEPES/0.005% BSA buffer to the 2 μL of serial diluted compounds. To prepare serial diluted compounds, 20 mM stocks of compounds were dissolved in 100% DMSO. The compound dilution plate was set up as follows: well #1 received 5 μL of compound plus 10 μL of DMSO. Wells 2-10 received 10 μL of DMSO. 5 μL was mixed and transferred from well #1 into well #2. 1:3 serial dilutions were continued out 10 steps. 2 μL of diluted compound was transferred into duplicate wells of a 384 well “assay plate” and then 90 μL of buffer was added.
After incubation, both the cell and “assay plate” plates were brought to the fluorometric imaging plate reader (FLIPR®) and 20 μL of the diluted compounds were transferred to the cell plates by the FLIPR®. Plates were then incubated for 1 hour at room temperature. After the 1 hour incubation, plates were returned to the FLIPR® and 20 μL of 4.5× concentrated ligand was added to the cell plates. During the assay, fluorescence readings were taken simultaneously from all 384 wells of the cell plate every 1.5 seconds. Five readings were taken to establish a stable baseline, then 20 μL of sample was rapidly (30 μL/sec) and simultaneously added to each well of the cell plate. The fluorescence was continuously monitored before, during and after sample addition for a total elapsed time of 100 seconds. Responses (increase in peak fluorescence) in each well following agonist addition were determined. The initial fluorescence reading from each well, prior to ligand stimulation, was used as a zero baseline value for the data from that well. The responses were expressed as % inhibition of the buffer control. […]
`CN([C@@H]1CCCc2c(OCC(=O)O)cccc21)S(=O)(=O)c1cc(F)cc(C(F)(F)F)c1` [Example 1-1, {(R)-5-[(3-fluoro-5-trifluoromethyl-benzenesulfonyl)-methyl-amino]-5,6,7,8-tetrahydro-naphthalen-1-yloxy}-acetic acid] showed an IC50 of 1770 nM. In the case of `O=C(O)COc1cccc2c1CCC[C@H]2NS(=O)(=O)c1cc(F)cc(C(F)(F)F)c1` [Example 10-12, [(R)-5-(3-fluoro-5-trifluoromethyl-benzenesulfonylamino)-5,6,7,8-tetrahydro-naphthalen-1-yloxy]-acetic acid], the IC50 is reported as 313 nM. `O=C(O)COc1cccc2c1CCC[C@H]2NS(=O)(=O)c1cc(F)cc(F)c1` [Example 10-5, [(R)-5-(3,5-difluoro-benzenesulfonylamino)-5,6,7,8-tetrahydro-naphthalen-1-yloxy]-acetic acid] gave an IC50 of 94 nM. In the case of `CN([C@@H]1CCCc2c(OCC(=O)O)cccc21)S(=O)(=O)c1cc(OC2CCCC2)cc(C(F)(F)F)c1` [Example 9-3, {(R)-5-[(3-cyclopentyloxy-5-trifluoromethyl-benzenesulfonyl)-methyl-amino]-5,6,7,8-tetrahydro-naphthalen-1-yloxy}-acetic acid], the IC50 is reported as 462 nM. Work on `CCN(CC)c1cc(C(F)(F)F)cc(S(=O)(=O)N(C)[C@@H]2CCCc3c(OCC(=O)O)cccc32)c1` [Example 4-2, {(R)-5-[(3-diethylamino-5-trifluoromethyl-benzenesulfonyl)-methyl-amino]-5,6,7,8-tetrahydro-naphthalen-1-yloxy}-acetic acid] yielded an IC50 of 2010 nM.

Same assay, conditions: CHO-K1 cells with G-alpha 16 and human CRTH2; unit inferred; read-out: IC50 value in FLIPR calcium flux assay (unit inferred)
With `O=C(O)COc1cccc2c1CCC[C@H]2NS(=O)(=O)c1cc(Cl)cc(Cl)c1` [Example 10-1, [(R)-5-(3,5-dichloro-benzenesulfonylamino)-5,6,7,8-tetrahydro-naphthalen-1-yloxy]-acetic acid] the IC50 was ~3000 nM.
